Values of other authors as cited in patent US9877929B2, “Topical vitamin D and ubiquinol oral supplement compositions” (Premier Dental Products Company, priority 2011, dated 2018).

Columns and labels:
[1] = stable UBIQUINOL supplement

## COc1c(O)c(C)c(C/C=C(\C)CC/C=C(\C)CC/C=C(\C)CC/C=C(\C)CC/C=C(\C)CC/C=C(\C)CC/C=C(\C)CC/C=C(\C)CC/C=C(\C)CCC=C(C)C)c(O)c1OC [UBIQUINOL]
[1]
  water solubility: less than 0.1 mg/ml
Absorption from the gastrointestinal tract
  time required to reach peak concentration: approximately 6 hours
Oral treatment
  time to steady-state concentrations: two
orally, 150 mg per day of UBIQUINOL in a softgel, within 28 days
  peak blood values: 3.84 µg/mL
